Assay results reported in patent US12233088B2 (Alexion Pharmaceuticals, Inc., priority 2017, dated 2025).

Columns and labels:
[1] = system: patients with Wilson disease
Procedure: Changes in neurological status were characterized using the Unified Wilson's Disease Rating Scale (UWDRS).
Patients were excluded if they had decompensated hepatic cirrhosis, a model for end-stage liver disease (MELD) score >11, or a modified Nazer score (revised King's score)>6.
The 24-week, phase 2, open-label study was conducted in Europe and the USA. […] Thereafter, dosing was tailored according to laboratory (including NCC concentrations adjusted for plasma molybdenum) and clinical assessments (maximum daily dose administered: 120 mg).
Disability and neurological status were assessed using parts II and III, respectively, of the UWDRS at baseline and weeks 4, 8, 12, 18, and 24: Disability (part II): 10-item patient-reported questionnaire (range for total scores: 0-40; higher scores indicate greater disability). Neurological status (part III): 23-item clinician-assessed score (range for total scores: 0-143; higher scores indicate worse neurological status). Data (total scores for UWDRS parts II and III, and AEs) are summarized briefly for context in Results.
UWDRS neurological status scores at baseline, week 24, and change from baseline to week 24 were calculated for: any individual item experienced by at least 50% of patients; and for item groups (i.e. collections of individual items that could be considered to represent particular patient phenotypes [Table 11]).
Least-squares mean (standard error [SE], 95% confidence intervals [CIs]) values were calculated for changes from baseline for UWDRS total scores using a mixed-model repeated-measures analysis; significance was assessed using two-sided p values. To investigate and quantify the relationship between UWDRS total scores for parts II and III, a random coefficients analysis was conducted using each patient's scores from all study visits. Summary statistics were calculated for other outcomes.

[2] = system: patients with Wilson's disease
Procedure: This open-label, phase 2 study was performed at 11 hospitals in the USA and in Europe. […] Investigators, other hospital personnel, and patients were aware of the identity of the treatment. […] This study is registered with ClinicalTrials.gov, number NCT02273596.
The open-label, phase 2 study was performed at 11 hospitals. Eligible patients were aged 18 years or older, with a diagnosis of Wilson's disease established by a Leipzig score of 4 or more. […] Patients with decompensated hepatic cirrhosis, a MELD score greater than 11, or a modified Nazer score (revised King's score) greater than 6 were excluded.
Investigators, other hospital personnel, patients, and the study sponsor were aware of the identity of the treatment.
Up-titration was stepwise, with each increase restricted to double the previous dose, and not permitted if NCC was within or below the normal range.
Using values for plasma total copper and ceruloplasmin concentrations, NCC was calculated by subtracting the amount of copper bound to ceruloplasmin from total copper concentrations (determined with inductively coupled plasma mass spectrometry). […] The correction method used the average molar ratio of copper to molybdenum in the tripartite complex, which was determined using the relationship between NCC and plasma molybdenum concentrations and confirmed by two independent methods. The NCC correction method was validated using random selections of test and validation samples.
The primary endpoint was change in NCCcorrected from baseline to 24 weeks, which was measured as NCC concentrations corrected for copper contained in tetrathiomolybdate-copper-albumin complexes (NCCcorrected).
Secondary endpoints were safety and tolerability, change in and time to normalisation of NCCcorrected level clinical neurological disease, liver function, clinical symptoms, health-related quality of life (HRQoL), psychiatric status, and pharmacokinetics and exchangeable copper, speciation profiling, and urinary copper. Psychiatric status, pharmacokinetics data, and copper endpoints were also measured. Neurological disease was assessed as patient-reported disability, measured with UWDRS part II, and also as trained-rater-assessed neurological status, measured with UWDRS part III. Liver synthetic function was assessed by monitoring of international normalised ratio (INR) and albumin concentrations. Additionally, changes in liver function were assessed by modified Nazer score (based on bilirubin, INR, AST, albumin, and white blood cell count) and, in a post-hoc analysis, by the MELD score (based on bilirubin, creatinine, INR, and cause of liver disease). HRQoL was measured with the EuroQoL 5 Dimensions Visual Analogue Scale (EQ VAS).
Adverse event (AE) data was collected for onset, duration, seriousness, and severity, with relation to study medication determined by the investigator.
Since the aim of the study was to present primarily descriptive statistics, no formal power calculations were performed. Changes in copper concentrations and scores were summarised over time with descriptive statistics. Mixed-model repeated-measures analysis with a fixed-effect term were applied for clinic visit, and a spatial power covariance structure was applied to model the within-participant errors. A spatial power covariance structure was selected because it assumes that the within-participant correlation decays as the time distance increases between repeated measures. SAS (version 9.3) was utilised to provide change in least-squares mean over time, and the associated 95% CIs, SE, and two-sided p values.

[3] = of 22 patients, baseline to week 24
[4] = baseline to week 24, least-squares mean, mixed-model repeated measures
[5] = baseline to week 24, mixed-model repeated measures
[6] = mixed-model repeated measures using all visits up to week 24

For `C[N+](C)(C)CCO.C[N+](C)(C)CCO.[SH-].[SH-].[S]=[Mo]=[S]` [WTX101, bis-choline tetrathiomolybdate], the “individuals with deterioration in dystonia item group score” value ([1]; baseline to week 24) was “three”, the “individuals with deterioration in gait item group score” value ([1]; baseline to week 24) was “six” and the “individuals with deterioration in rigidity item group score” value ([1]; baseline to week 24) was “four”. The “mean improvement in UWDRS part III item group total tremor” value ([1]; baseline to week 24, SD 61.7) was 34.2%, the “mean improvement in UWDRS part III item group limb agility (dexterity) and coordination” value ([1]; baseline to week 24, SD 72.2) was 29.2% and the “overall deterioration in UWDRS part III item group gait” value ([1]; baseline to week 24, SD 77.8) was 4.2%. For the same compound, the “overall deterioration in UWDRS part III item group dystonia” value ([1]; baseline to week 24, SD 135.2) was 15.0%, the “overall deterioration in UWDRS part III item group rigidity” value ([1]; baseline to week 24, SD 169.6) was 26.9% and the “patients with any deterioration in limb agility and coordination item group score” value [1, 3] was “three”. For the same compound, the “patients with any deterioration in tremor item group score” value [1, 3] was “four”, the “mean improvement (% change) in UWDRS part III item alternating hand movements” value ([1]; over 24 weeks) was 35.0% and the “mean improvement (% change) in UWDRS part III item handwriting” value ([1]; over 24 weeks) was 51.4%. The “mean improvement (% change) in UWDRS part III item leg agility” value ([1]; over 24 weeks) was 40.8%, the “mean improvement (% change) in UWDRS part III item postural arm tremor” value ([1]; over 24 weeks) was 39.5% and the “Patients reporting at least one treatment-emergent adverse event, Number of Patients (%)” value ([2]; 24 weeks, N=28) was 17 (61%). For the same compound, the “adverse event ALT increased, Number of Patients (%)” value ([2]; 24 weeks, N=28) was 8 (29%), the “adverse event AST increased, Number of Patients (%)” value ([2]; 24 weeks, N=28) was 7 (25%) and the “adverse event Blood alkaline phosphatase increased, Number of Patients (%)” value ([2]; 24 weeks, N=28) was 3 (11%). For the same compound, the “adverse event Dry Skin, Number of Patients (%)” value ([2]; 24 weeks, N=28) was 2 (7%), the “adverse event GGT increased, Number of Patients (%)” value ([2]; 24 weeks, N=28) was 8 (29%) and the “adverse event Headache, Number of Patients (%)” value ([2]; 24 weeks, N=28) was 2 (7%). For the same compound, the “adverse event Hepatic enzyme increased, Number of Patients (%)” value ([2]; 24 weeks, N=28) was 4 (14%), the “adverse event Nausea, Number of Patients (%)” value ([2]; 24 weeks, N=28) was 2 (7%) and the “adverse event Tremor, Number of Patients (%)” value ([2]; 24 weeks, N=28) was 2 (7%). The “Relationship to the study drug as deemed by the investigator: ALT increased” value ([2]; SAE, baseline to week 24) was “Possible”, the “Relationship to the study drug as deemed by the investigator: Abnormal behavior” value ([2]; SAE, baseline to week 24) was “Unrelated” and the “Relationship to the study drug as deemed by the investigator: Adjustment disorder” value ([2]; SAE, baseline to week 24) was “Unrelated”. The “Relationship to the study drug as deemed by the investigator: Affective disorder” value ([2]; SAE, baseline to week 24) was “Unrelated”, the “Relationship to the study drug as deemed by the investigator: Agranulocytosis” value ([2]; SAE, baseline to week 24) was “Probable” and the “Relationship to the study drug as deemed by the investigator: Gait disturbance” value ([2]; SAE, baseline to week 24) was “Unlikely”. For the same compound, the “Relationship to the study drug as deemed by the investigator: Hepatic enzyme increased (severe ALT/AST elevation)” value ([2]; SAE, baseline to week 24) was “Probable”, the “Relationship to the study drug as deemed by the investigator: Mania” value ([2]; SAE, baseline to week 24) was “Unlikely” and the “Relationship to the study drug as deemed by the investigator: Personality disorder” value ([2]; SAE, baseline to week 24) was “Unlikely”. The “Relationship to the study drug as deemed by the investigator: Psychotic disorder” value ([2]; SAE, baseline to week 24) was “Unrelated”, the “Relationship to the study drug as deemed by the investigator: Decline in neurological functioning” value ([2]; SAE, baseline to week 24, likely due to disease progression) was “Possible” and the “week by which mean NCCcorrected was below the upper limit of normal” value ([2]; ULN 2.3 μmol/L) was at most 12 week. For the same compound, the “time to normalisation of liver function tests” value ([2]; after dose adjustments or treatment interruption) was 1-2 weeks, the “time of occurrence of liver enzyme increases” value ([2]; after initiation, at 30 mg/day or higher) was 4-10 weeks and the “patients who achieved or maintained normalised NCCcorrected, n (%)” value ([2]; at 24 weeks, of 28 patients) was 16 (57%). The “patients with at least a 25% reduction from baseline NCCcorrected, n (%)” value ([2]; at 24 weeks, of 28 patients) was 4 (14%), the “patients meeting the criteria for treatment success” value ([2]; at 24 weeks, of 28 patients, normalised NCCcorrected (≤2.3 μmol/L) or ≥25% reduction) was 71% and the “reduction of mean NCCcorrected” value ([2]; baseline to week 24) was 72%. For the same compound, the “UWDRS part II score Change from baseline” value [2, 4] was −3.7, the “UWDRS part III score Change from baseline” value [2, 4] was −8.7 and the “Albumin Change from baseline” value [2, 5] was 2.3 g/L. For the same compound, the “Bilirubin Change from baseline” value [2, 5] was 0.02 mg/dL, the “EQVAS Change from baseline” value [2, 5] was 9.2 and the “INR Change from baseline” value [2, 5] was −0.05. The “Modified Nazer score Change from baseline” value [2, 5] was −0.4, the “Platelets Change from baseline” value [2, 5] was 2.3 1 × 10^9/L and the “MELD score Change from baseline” value ([2]; baseline to week 24, post-hoc, mixed-model repeated measures) was −0.5. The “increase of median peak ALT from baseline” value ([2]; in the 11 patients with liver enzyme increases) was 7.2 times, the “median peak ALT” value ([2]; in the 11 patients with liver enzyme increases, range 101-1341) was 197 U/L and the “ALT Change from baseline” value [2, 6] was 48.4 U/L. The “AST Change from baseline” value [2, 6] was 3.8 U/L, the “GGT Change from baseline” value [2, 6] was 60.7 U/L and the “most pronounced ALT signal” value ([2]; one patient, 30 mg/day) was 1341 U/L. For the same compound, the “second highest ALT signal” value ([2]; one patient, 120 mg/day) was 615 U/L, the “patients with UWDRS part II score improved by at least one point, n (%)” value ([2]; week 24) was 12 (57%) and the “patients with UWDRS part III score improved by 4 or more points, n (%)” value ([2]; week 24) was 14 (67%). For the same compound, the “Modified Nazer score Week 24 Mean (SD)” value ([2]; week 24, n=21, baseline 1.4 (1.0)) was 1.1 (0.6), the “EQVAS Week 24 Mean (SD)” value ([2]; week 24, n=23, baseline 65.9 (23.0)) was 74.3 (16.9) and the “INR Week 24 Mean (SD)” value ([2]; week 24, observed cases, n=22, baseline 1.11 (0.16)) was 1.06 (0.08). The “Bilirubin Week 24 Mean (SD)” value ([2]; week 24, observed cases, n=23, baseline 0.51 (0.29)) was 0.49 (0.27) mg/dL, the “NCCcorrected Week 24 Mean (SD)” value ([2]; week 24, observed cases, n=23, baseline 3.6 (2.1)) was 0.9 (1.0) μmol/L and the “AST Week 24 Mean (SD)” value ([2]; week 24, observed cases, n=23, baseline 36.6 (27.6)) was 28.2 (9.9) U/L. For the same compound, the “Albumin Week 24 Mean (SD)” value ([2]; week 24, observed cases, n=23, baseline 39.2 (5.4)) was 40.9 (3.2) g/L, the “ALT Week 24 Mean (SD)” value ([2]; week 24, observed cases, n=23, baseline 42.6 (32.8)) was 36.8 (18.7) U/L and the “GGT Week 24 Mean (SD)” value ([2]; week 24, observed cases, n=23, baseline 70.1 (64.0)) was 97.5 (77.7) U/L. For the same compound, the “Platelets Week 24 Mean (SD)” value ([2]; week 24, observed cases, n=23, baseline 155.5 (72.5)) was 147.9 (63.2) 1 × 10^9/L and the “MELD score Week 24 Mean (SD)” value ([2]; week 24, post-hoc, n=21, baseline 7.7 (1.9)) was 7.2 (1.8).
